We go through one compound from patent publication US4877870A, “Process for producing 10-hydroxyanthracyclines” (Kirin Beer Kabushiki Kaisha, priority 1986, dated 1989).

For the data set the following is noted: ICR mice, intravenous injection.

The structures appear in SMILES notation.

Take `CC[C@@]1(O)C[C@H](O[C@H]2C[C@H](N3CCOCC3)[C@H](O)[C@H](C)O2)c2c(O)c3c(c(O)c2[C@H]1O)C(=O)c1cccc(O)c1C3=O` [M-R20X2, 3'-deamino-3'-(4-morpholinyl)-13-deoxo-10-hydroxycarminomycin]: the LD50 – broadly, the dose expected to kill half of the subjects tested – is reported as 3.55 mg/kg.
